The values that follow come from patent EP0574992A1, “5-(1,2,4-Triazol-1-ylmethyl)-3H-isobenzofuran-1-one derivatives, their preparation and use as aromatase inhibitors” (GLAXO GROUP LIMITED, priority 1992, dated 1993).

The first series addresses T1, human placental aromatase (Homo sapiens, UniProt P11511).
T1 construct: Human placental aromatase was assayed according to the method of Thomson and Siiteri; from tissue; host or cells: human placenta
T1 sequence (P11511 1-503): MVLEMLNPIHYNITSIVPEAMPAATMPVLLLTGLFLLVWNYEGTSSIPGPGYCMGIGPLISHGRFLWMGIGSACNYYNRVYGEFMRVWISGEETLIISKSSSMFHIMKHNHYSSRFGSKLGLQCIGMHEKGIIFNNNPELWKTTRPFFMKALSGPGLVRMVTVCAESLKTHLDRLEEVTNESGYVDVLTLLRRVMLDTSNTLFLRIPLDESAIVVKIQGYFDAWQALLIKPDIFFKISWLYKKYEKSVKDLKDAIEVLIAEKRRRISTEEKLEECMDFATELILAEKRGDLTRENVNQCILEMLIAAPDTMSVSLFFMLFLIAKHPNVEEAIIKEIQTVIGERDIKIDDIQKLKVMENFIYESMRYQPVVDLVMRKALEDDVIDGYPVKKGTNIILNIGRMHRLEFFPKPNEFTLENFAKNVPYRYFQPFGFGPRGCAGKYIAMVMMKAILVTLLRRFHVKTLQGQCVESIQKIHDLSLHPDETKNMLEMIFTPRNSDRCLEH
As to the kind of experiment: Human placental aromatase assay ([3H]-H2O release), in vitro. It counts as biochemical. As to conditions: 1 mM NADPH, read-out: Aromatase inhibitory activity - in vitro IC₅₀. As for the experimental part:
Aromatase inhibitory activity may be determined using human placental aromatase.
Human placental aromatase was assayed according to the method of Thomson and Siiteri, Hormone Res. (1979) 11:179-185, except that the assay buffer contained 1 mM NADPH instead of the NADPH-generating system. [³H]-H₂O, released as a by-product of aromatization, was separated from substrate using C18 mini-columns.
Regarding `CC1(C)OC(=O)c2ccc(C(c3c(F)cc([N+](=O)[O-])cc3F)n3cncn3)cc21` (racemic) [Example 1, 5-[(2,6-Difluoro-4-nitrophenyl)-1,2,4-triazol-1-ylmethyl]-3,3-dimethyl-3H-isobenzofuran-1-one], the IC50 came out at 15 nM.

Regarding `CC1(C)OC(=O)c2ccc(C(c3ccc(C#N)cc3F)n3cncn3)cc21` (stereo not shown) [Example 6, 4-[(3,3-Dimethyl-1-oxo-1,3-dihydro-isobenzofuran-5-yl)-1,2,4-triazol-1 - ylmethyl]-3-fluorobenzonitrile], the IC50 was 83 nM.

For the compound `CC1(C)OC(=O)c2ccc(C(c3c(F)cc(C#N)cc3F)n3cncn3)cc21` (stereo not shown) [Example 3, 4-[(3.3-Dimethyl-1-oxo-1,3-dihydro-isobenzofuran-5-yl)-1,2,4-triazol-1-ylmethyl]-3,5-difluorobenzonitrile], the IC50 is 24 nM.

With `CC1(C)OC(=O)c2ccc(C(c3ccc(C#N)cc3)n3cncn3)cc21` (racemic) [Example 7, 4-[(3,3-Dimethyl-1-oxo-1,3-dihydro-isobenzofuran-5-yl)-1,2,4-triazol-1 - ylmethyl]-benzonitrile], the IC50 was 73 nM.

Take `CC1(C)OC(=O)c2ccc(C(c3ccc([N+](=O)[O-])cc3F)n3cncn3)cc21` (stereo not shown) [Example 2, 5-[(2-Fluoro-4-nitrophenyl)-1,2,4-triazol-1-ylmethyl]-3,3-dimethyl-3H-isobenzofuran-1-one]: the IC50 turned out to be 63 nM.

With `CC1(C)OC(=O)c2ccc(C(c3ccc([N+](=O)[O-])cc3)n3cncn3)cc21` (stereo not shown) [Example 5, 5-[(4-Nitrophenyl)-1,2,4-triazol-1-ylmethyl]-3,3-dimethyl-3H-isobenzofuran-1-one], the IC50 was determined as 51 nM.

Another series deals with mouse. As to the kind of experiment: Acute toxicity study, single oral doses. It counts as in vivo. As to conditions: single doses up to 2g/kg p.o.
Turning to `CC1(C)OC(=O)c2ccc(C(c3c(F)cc([N+](=O)[O-])cc3F)n3cncn3)cc21` (racemic) [Example 1, 5-[(2,6-Difluoro-4-nitrophenyl)-1,2,4-triazol-1-ylmethyl]-3,3-dimethyl-3H-isobenzofuran-1-one], the “Acute toxicity (tolerability)” value is “well tolerated”.
